Measured values: publication PMC12216625, “Identification of nanomolar adenosine A2A receptor ligands using reinforcement learning and structure-based drug design” (Nature Communications, 2025)

Tests used:
[1] = target: T1, A2A receptor (human, wild-type) (Homo sapiens, UniProt P29274); experiment: [3H]-ZM241385 radioligand competition, filtration; format: binding; details: read-out: A2A / pKi (± SD) (converted)
T1 construct: gene ADORA2A; wild-type human A2A; BacMam-transfected cells (CHO-K1 for the cAMP assay)
Source text: [3H]-ZM241385 radioligand competition, filtration on A2A receptor (human, wild-type)

[2] = target: T1, A2A receptor (human, wild-type); experiment: cAMP accumulation HTRF, agonist mode (compound alone); format: cell-based; details: read-out: A2A / pEC50 (± SD) (converted)
Source text: cAMP accumulation HTRF, agonist mode (compound alone) on A2A receptor (human, wild-type)

[3] = target: T1, A2A receptor (human, wild-type); experiment: cAMP accumulation HTRF, antagonist mode; format: cell-based; details: read-out: A2A / pIC50 (± SD) (converted)
Source text: cAMP accumulation HTRF, antagonist mode on A2A receptor (human, wild-type)

T1 sequence (P29274 whole entry): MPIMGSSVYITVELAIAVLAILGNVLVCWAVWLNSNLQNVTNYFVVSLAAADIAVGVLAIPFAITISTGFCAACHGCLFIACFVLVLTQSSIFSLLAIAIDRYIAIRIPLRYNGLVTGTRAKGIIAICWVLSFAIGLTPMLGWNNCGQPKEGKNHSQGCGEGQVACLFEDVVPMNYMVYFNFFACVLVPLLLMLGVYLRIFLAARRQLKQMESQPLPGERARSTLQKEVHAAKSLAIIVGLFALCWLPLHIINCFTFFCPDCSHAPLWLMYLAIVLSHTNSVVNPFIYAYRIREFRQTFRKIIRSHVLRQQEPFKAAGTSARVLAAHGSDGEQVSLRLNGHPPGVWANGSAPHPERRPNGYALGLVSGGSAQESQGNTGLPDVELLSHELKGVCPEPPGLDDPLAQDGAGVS

Row | Ki [1] | EC50 [2] | IC50 [3] | SMILES
1 | 0.0501 µM | 0.02 µM | 0.0251 µM | Nc1nc(-c2cccc(-n3ccnc3)n2)nc(-c2ccco2)n1 [compound 7, Compound 7]
2 | 0.0316 µM | 0.316 µM | 0.02 µM | Nc1nc(-c2ccco2)nc2c1ccn2-c1ccncc1 [compound 9, Compound 9]

More lines, now with the values behind:

Row | SMILES | Ki [1] | EC50 [2] | IC50 [3]
3 | Cc1ccc(-c2nc(N)nn2-c2ccccc2)cc1 [compound 1, Compound 1] | 15.8 µM |  | 
4 | Nc1cc(NCc2ccccc2F)nc(-c2ccccn2)n1 [compound 3, Compound 3] | 1.26 µM |  | 
5 | Nc1nc(-c2ccc(O)cc2)c2cc(F)ccc2n1 [compound 5, Compound 5] | 2 µM | 0.0501 µM | 
6 | Nc1nc2cc(-c3ccoc3)cc(-c3ccco3)n2n1 [compound 6, Compound 6] | 1.26 µM |  | 
